Series [1] relates to Staphylococcus aureus Methicillin/Gentamicin/Tetracycline Resistant (ATCC 33592). The following applies: for MIC Staphylococcus aureus ME/GM/TC resistant: Minimal Inhibitory Concentration, tested at 100-0.1 in 1% DMSO; for Minimum Inhibitory Concentration Staphylococcus aureus ME/GM/TC resistant: in vitro MIC, tested at 100, 30, 10, 3, 1, 0.3 and 0.1 μM in 1% DMSO.
Series [2] concerns Mycobacterium ranae (ATCC 110). The following applies: ATCC 110.
Series [3] relates to Bacillus subtillis (ATCC 43223). The settings on record: ATCC 43223.
Series [4] has as its system red blood cells. The following applies: 100 μM.
The test system of another series is F. tularensis SCHU-S4. The following applies: in vitro MIC.
The next series concerns Bacillus anthracis Ames. The settings on record: in vitro MIC.
The test system of another series is B. melitensis 16M. The following applies: in vitro MIC.
In a further series the test system is Plague CO92. The settings on record: in vitro MIC.
A short description of series [5]: in vitro. The following applies: human, microsomes, pH 7.4.
Series [6] can be described thus: in vitro. The settings on record: monkey, microsomes, pH 7.4.
Series [7] is described as follows: in vitro. The following applies: dog, microsomes, pH 7.4.
The nature of series [8]: in vitro. The settings on record: rat, microsomes, pH 7.4.
A short description of series [9]: in vitro. The settings on record: mouse, microsomes, pH 7.4.
Series [10] relates to Salmonella typhimurium (ATCC 13311). The following applies: ATCC 13311.
The test system of series [11] is red blood cells. Kind of series: Hemolytic studies. The settings on record: concentration not given.

Structures are written as SMILES. In brackets after ≈: the same amount, converted by molar mass. Read-outs that look alike come from different tables or passages of the source. Where a SMILES comes first, the peptide text is derived from it. [ ]: non-standard residue; d: D form. ξ: configuration not given here. Phe(4-F) = N[C@@H](Cc1ccc(F)cc1)C(=O)O; ξTic = O=C(O)C1Cc2ccccc2CN1; ξOic = O=C(O)C1CC2CCCCC2N1; GABA = NCCCC(=O)O

`CC(C)C[C@H](NC(=O)[C@@H](N)CCCCN)C(=O)N1Cc2ccccc2CC1C(=O)N1C(C(=O)N[C@@H](CCCCN)C(=O)N2Cc3ccccc3CC2C(=O)N2C(C(=O)N[C@@H](Cc3ccccc3)C(=O)N3Cc4ccccc4CC3C(=O)N3C(C(=O)N[C@@H](CCCCN)C(=O)N4Cc5ccccc5CC4C(=O)N4C(C(=O)N[C@@H](Cc5ccccc5)C(=O)N5Cc6ccccc6CC5C(=O)N5C(C(=O)N[C@@H](CCCCN)C(=O)N6Cc7ccccc7CC6C(=O)N6C(C(=O)N[C@@H](CCCCN)C(=O)N[C@@H](CCCNC(=N)N)C(N)=O)CC7CCCCC76)CC6CCCCC65)CC5CCCCC54)CC4CCCCC43)CC3CCCCC32)CC2CCCCC21` (stereo partly drawn) [FKAB-1F, NH2-KL-Tic-Oic-K-Tic-Oic-F-Tic-Oic-K-Tic-Oic-F-Tic-Oic-K-Tic-Oic-KR-CONH2] (H-KL[ξTic][ξOic]K[ξTic][ξOic]F[ξTic][ξOic]K[ξTic][ξOic]F[ξTic][ξOic]K[ξTic][ξOic]KR-NH2): in series [1], the “MIC Staphylococcus aureus ME/GM/TC resistant” value was found to be 10.00 µM (≈ 30.8 µg/mL). Also, in series [1], the “Minimum Inhibitory Concentration Staphylococcus aureus ME/GM/TC resistant” value was found to be 10 µM. Besides, the “MIC Mycobacterium ranae” value in series [2] worked out at 30.00 µM (≈ 92.5 µg/mL). Further, the “Minimum Inhibitory Concentration Mycobacterium ranae” value in [2] worked out at 30 µM. Further, in series [3], the “MIC Bacillus Subtillis” value stood at 1.00 µM (≈ 3.08 µg/mL). Also, the “% hemolysis 100/25 μM (first value)” value with red blood cells [4] was 63%. Besides, in the series with F. tularensis SCHU-S4, the “Minimum Inhibitory Concentration F. tularensis SCHU-S4” value is above 500 µg/mL. For the same compound, in the series with Bacillus anthracis Ames (listed as 24), the “Minimum Inhibitory Concentration Bacillus anthracis Ames” value came out at 0.98 µg/mL. Further, the “Minimum Inhibitory Concentration B. melitensis 16M” value with B. melitensis 16M was above 500 µg/mL. Moreover, the “Minimum Inhibitory Concentration Plague CO92” value in the series with Plague CO92 (listed as 24) was above 500 µg/mL. Further, the share remaining at 0.25 h, 1 μM was 99% in “in vitro [5]”, 28% in “in vitro [6]” and 113% in the series “in vitro [8]”. Moreover, the amount remaining at 0.5 h, 1 μM came to 29% in “in vitro [6]”, 27% in “in vitro [7]”, 120% in the series “in vitro [8]” and 45% in “in vitro [9]”. Moreover, the share remaining at 1 h, 1 μM in “in vitro [6]” amounted to 9%; in the series “in vitro [7]”, 8%; in the series “in vitro [9]”, 22%.
On to `CC(=O)NCC(=O)N[C@@H](Cc1ccccc1)C(=O)N1Cc2ccccc2CC1C(=O)N1C(C(=O)NCC(=O)N[C@@H](CCCCN)C(=O)N2Cc3ccccc3CC2C(=O)N2C(C(=O)NCC(=O)N[C@@H](Cc3ccccc3)C(=O)N3Cc4ccccc4CC3C(=O)N3C(C(=O)NCC(=O)N[C@@H](CCCCN)C(=O)N4Cc5ccccc5CC4C(=O)N[C@@H](CCCCN)C(=O)N[C@@H](CCCCN)C(=O)N[C@@H](CCCCN)C(=O)N[C@@H](CCCCN)C(N)=O)CC4CCCCC43)CC3CCCCC32)CC2CCCCC21` (stereo partly drawn) [FKAB-1G, Ac-GF-Tic-Oic-GK-Tic-Oic-GF-Tic-Oic-GK-Tic-KKKK-CONH2] (Ac-GF[ξTic][ξOic]GK[ξTic][ξOic]GF[ξTic][ξOic]GK[ξTic]KKKK-NH2), for which the “MIC Salmonella typhimurium” value in [10] is 10 µM (≈ 24.4 µg/mL). For the same compound, in series [1], the “MIC Staphylococcus aureus ME/GM/TC resistant” value was found to be 3.00 µM (≈ 7.32 µg/mL). For the same compound, in series [1], the “Minimum Inhibitory Concentration Staphylococcus aureus ME/GM/TC resistant” value was 3 µM. In addition, the “MIC Mycobacterium ranae” value in series [2] was 10.00 µM (≈ 24.4 µg/mL). The “MIC Bacillus Subtillis” value in [3] is 1.00 µM (≈ 2.44 µg/mL). Further, the “% hemolysis 100/25 μM (first value)” value in the series with red blood cells [4] is reported as 14%. For the same compound, the values for the share remaining at 0.25 h, 1 μM in “in vitro [6]”, in “in vitro [8]” and in “in vitro [9]” were 55%, 71% and 80%, respectively. In addition, the amount remaining at 0.5 h, 1 μM in the series “in vitro [6]” worked out at 73%; in “in vitro [7]”, 50%; in the series “in vitro [8]” it was 79%; in “in vitro [9]” it was 10%. Moreover, the fraction remaining at 1 h, 1 μM in “in vitro [6]” turned out to be 91%; in “in vitro [7]”, 63%; in the series “in vitro [8]”, 90%; in “in vitro [9]” it was 12%. Further, the “% hemolysis / Hemolytic activity” value with red blood cells [11] and in the series on red blood cells [11] (listed as 25) was 14% each time.
Turning to `CC(=O)NCC(=O)N[C@@H](Cc1ccc(F)cc1)C(=O)N1Cc2ccccc2CC1C(=O)N1C(C(=O)NCC(=O)N[C@@H](CCCCN)C(=O)N2Cc3ccccc3CC2C(=O)N2C(C(=O)NCC(=O)N[C@@H](Cc3ccc(F)cc3)C(=O)N3Cc4ccccc4CC3C(=O)N3C(C(=O)NCC(=O)N[C@@H](CCCCN)C(=O)N4Cc5ccccc5CC4C(=O)N[C@@H](CCCCN)C(=O)N[C@@H](CCCCN)C(=O)N[C@@H](CCCCN)C(=O)N[C@@H](CCCCN)C(N)=O)CC4CCCCC43)CC3CCCCC32)CC2CCCCC21` (stereo partly drawn) [FKAB-1Go, Ac-G-Fpa-Tic-Oic-GK-Tic-Oic-G-Fpa-Tic-Oic-GK-Tic-KKKK-CONH2] (Ac-G[Phe(4-F)][ξTic][ξOic]GK[ξTic][ξOic]G[Phe(4-F)][ξTic][ξOic]GK[ξTic]KKKK-NH2), in series [10], the “MIC Salmonella typhimurium” value was found to be 30 µM (≈ 74.3 µg/mL) and the “Minimum Inhibitory Concentration Salmonella typhimurium” value stood at 30 µM. Besides, in [1], the “MIC Staphylococcus aureus ME/GM/TC resistant” value came out at 10.00 µM (≈ 24.8 µg/mL) and the “Minimum Inhibitory Concentration Staphylococcus aureus ME/GM/TC resistant” value turned out to be 10 µM. In series [2], the “MIC Mycobacterium ranae” value turned out to be 3.00 µM (≈ 7.43 µg/mL) and the “Minimum Inhibitory Concentration Mycobacterium ranae” value is 3 µM. Moreover, in [3], the “MIC Bacillus Subtillis” value was found to be 0.30 µM (≈ 0.743 µg/mL) and the “Minimum Inhibitory Concentration Bacillus subtillis” value came out at 0.3 µM. The “Minimum Inhibitory Concentration F. tularensis SCHU-S4” value in the series with F. tularensis SCHU-S4 was found to be 250 µg/mL. In addition, the “Minimum Inhibitory Concentration Bacillus anthracis Ames” value in the series with Bacillus anthracis Ames (listed as 44) came out at 0.98 µg/mL. Moreover, the “Minimum Inhibitory Concentration B. melitensis 16M” value with B. melitensis 16M is above 500 µg/mL. Moreover, in the series with Plague CO92 (listed as 44), the “Minimum Inhibitory Concentration Plague CO92” value worked out at 31.25 µg/mL. Further, the fraction remaining at 0.25 h, 1 μM in “in vitro [5]” amounted to 103%. In “in vitro [6]”, the share remaining at 0.25 h, 1 μM was determined as 57%; the amount remaining at 0.5 h, 1 μM is 65%; the fraction remaining at 1 h, 1 μM amounted to 94%. Also, in “in vitro [7]”, the amount remaining at 0.5 h, 1 μM came to 54% and the share remaining at 1 h, 1 μM turned out to be 59%. Also, in the series “in vitro [8]”, the fraction remaining at 0.25 h, 1 μM is 74%; the amount remaining at 0.5 h, 1 μM stood at 57%; the share remaining at 1 h, 1 μM was determined as 75%. Also, in the series “in vitro [9]”, the fraction remaining at 0.25 h, 1 μM was 81%; the amount remaining at 0.5 h, 1 μM worked out at 26%; the amount remaining at 1 h, 1 μM stood at 22%.
Regarding `CC(=O)NCC(=O)N[C@@H](Cc1ccccc1)C(=O)N1Cc2ccccc2CC1C(=O)N1C(C(=O)NCC(=O)N[C@@H](CCCCN)C(=O)N2Cc3ccccc3CC2C(=O)N2C(C(=O)NCC(=O)N[C@@H](Cc3ccccc3)C(=O)N3Cc4ccccc4CC3C(=O)N3C(C(=O)NCC(=O)N[C@@H](CCCCN)C(=O)N4Cc5ccccc5CC4C(=O)NCCCC(=O)N[C@@H](CCCCN)C(=O)N[C@@H](CCCCN)C(=O)N[C@@H](CCCCN)C(=O)N[C@@H](CCCCN)C(N)=O)CC4CCCCC43)CC3CCCCC32)CC2CCCCC21` (stereo partly drawn) [FKAB-1G-Gaba, Ac-GF-Tic-Oic-GK-Tic-Oic-GF-Tic-Oic-GK-Tic-Gaba-KKKK-CONH2] (Ac-GF[ξTic][ξOic]GK[ξTic][ξOic]GF[ξTic][ξOic]GK[ξTic][GABA]KKKK-NH2), the “Minimum Inhibitory Concentration Staphylococcus aureus ME/GM/TC resistant” value in series [1] came out at 10 µM. Further, the “Minimum Inhibitory Concentration Mycobacterium ranae” value in series [2] was found to be 3 µM. In the series on F. tularensis SCHU-S4, the “Minimum Inhibitory Concentration F. tularensis SCHU-S4” value was above 500 µg/mL. In addition, the “Minimum Inhibitory Concentration Bacillus anthracis Ames” value with Bacillus anthracis Ames (listed as 53) is 0.98 µg/mL. The “Minimum Inhibitory Concentration B. melitensis 16M” value with B. melitensis 16M was above 500 µg/mL. The “Minimum Inhibitory Concentration Plague CO92” value in the series on Plague CO92 (listed as 53) turned out to be 31.25 µg/mL. Further, the fraction remaining at 0.25 h, 1 μM was determined as 118% in the series “in vitro [5]”, 117% in the series “in vitro [6]”, 113% in the series “in vitro [8]” and 88% in the series “in vitro [9]”. Also, the fraction remaining at 0.5 h, 1 μM in the series “in vitro [6]” turned out to be 120%; in the series “in vitro [7]”, 80%; in the series “in vitro [8]”, 72%; in “in vitro [9]”, 71%. Also, the results for the amount remaining at 1 h, 1 μM in the series “in vitro [7]”, in the series “in vitro [8]” and in the series “in vitro [9]” were 86%, 104% and 66%, respectively.
